{
  "source": "ChEMBL document CHEMBL3526034",
  "about": "(Drug Metab Dispos, 2013)",
  "key": {"Cytochrome P450 2C9": {"molecular_target": "Cytochrome P450 2C9 (Homo sapiens, UniProt P11712)", "sequence (P11712 whole entry)": "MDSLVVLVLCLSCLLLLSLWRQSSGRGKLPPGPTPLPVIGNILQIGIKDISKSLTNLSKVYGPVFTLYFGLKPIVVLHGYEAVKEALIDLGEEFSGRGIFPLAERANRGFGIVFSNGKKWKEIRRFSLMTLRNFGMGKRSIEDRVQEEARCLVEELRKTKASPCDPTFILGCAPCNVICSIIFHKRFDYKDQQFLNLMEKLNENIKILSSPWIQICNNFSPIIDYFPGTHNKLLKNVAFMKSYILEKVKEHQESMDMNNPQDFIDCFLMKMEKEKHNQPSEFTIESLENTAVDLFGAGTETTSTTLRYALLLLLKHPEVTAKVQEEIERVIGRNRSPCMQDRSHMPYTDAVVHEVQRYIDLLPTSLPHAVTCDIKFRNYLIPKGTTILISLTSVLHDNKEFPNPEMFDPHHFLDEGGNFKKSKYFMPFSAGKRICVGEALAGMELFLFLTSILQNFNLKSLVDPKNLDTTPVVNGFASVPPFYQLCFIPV", "assay": "Inhibition of CYP2C9 in human liver microsomes using diclofenac as substrate preincubated for 20 mins with substrate prior to initiation of reaction with NADPH by HPLC analysis", "assay_type": "ADME"}, "CYP2C9": {"molecular_target": "CYP2C9 (Homo sapiens, UniProt P11712)", "sequence (P11712 whole entry)": "as above", "assay": "Inhibition of CYP2C9 in human liver microsomes using diclofenac as substrate at 100 uM preincubated for 20 mins with substrate prior to initiation of reaction with NADPH by HPLC analysis", "assay_type": "ADME", "conditions": "probe diclofenac"}, "UGT1A1": {"molecular_target": "UGT1A1 (Homo sapiens, UniProt P22309)", "assay": "Inhibition of human recombinant UGT1A1 expressed in supersomes assessed as scopoletin glucuronidation at 100 uM by fluorescence analysis", "assay_type": "ADME", "conditions": "probe scopoletin"}, "[1]": {"molecular_target": "T1, UDP-glucuronosyltransferase 1A1 (Homo sapiens, UniProt P22309)", "T1 sequence (P22309 whole entry)": "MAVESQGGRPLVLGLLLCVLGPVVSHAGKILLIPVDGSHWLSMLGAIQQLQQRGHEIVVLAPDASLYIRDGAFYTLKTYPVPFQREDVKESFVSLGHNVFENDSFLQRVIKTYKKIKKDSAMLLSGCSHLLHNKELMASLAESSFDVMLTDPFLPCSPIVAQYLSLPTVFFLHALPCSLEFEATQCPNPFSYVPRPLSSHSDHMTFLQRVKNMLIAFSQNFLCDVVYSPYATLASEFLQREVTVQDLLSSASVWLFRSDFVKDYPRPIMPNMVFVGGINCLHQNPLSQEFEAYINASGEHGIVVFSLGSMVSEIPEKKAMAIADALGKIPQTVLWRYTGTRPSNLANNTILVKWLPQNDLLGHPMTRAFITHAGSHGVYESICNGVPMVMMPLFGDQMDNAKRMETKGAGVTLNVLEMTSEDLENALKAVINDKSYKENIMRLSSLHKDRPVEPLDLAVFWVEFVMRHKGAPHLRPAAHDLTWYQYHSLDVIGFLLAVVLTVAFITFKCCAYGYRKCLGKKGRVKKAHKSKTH", "assay": "Inhibition of human recombinant UGT1A1 expressed in supersomes assessed as scopoletin glucuronidation by fluorescence analysis", "assay_type": "ADME"}, "Hepatocyte": {"test_system": "Hepatocyte", "assay": "Induction of CYP3A4 mRNA expression in human hepatocytes at 1 to 40 uM after 48 hrs by real time PCR analysis", "assay_type": "ADME, cell-based"}, "Cytochrome P450 2C8": {"molecular_target": "T2, Cytochrome P450 2C8 (Homo sapiens, UniProt P10632)", "T2 sequence (P10632 whole entry)": "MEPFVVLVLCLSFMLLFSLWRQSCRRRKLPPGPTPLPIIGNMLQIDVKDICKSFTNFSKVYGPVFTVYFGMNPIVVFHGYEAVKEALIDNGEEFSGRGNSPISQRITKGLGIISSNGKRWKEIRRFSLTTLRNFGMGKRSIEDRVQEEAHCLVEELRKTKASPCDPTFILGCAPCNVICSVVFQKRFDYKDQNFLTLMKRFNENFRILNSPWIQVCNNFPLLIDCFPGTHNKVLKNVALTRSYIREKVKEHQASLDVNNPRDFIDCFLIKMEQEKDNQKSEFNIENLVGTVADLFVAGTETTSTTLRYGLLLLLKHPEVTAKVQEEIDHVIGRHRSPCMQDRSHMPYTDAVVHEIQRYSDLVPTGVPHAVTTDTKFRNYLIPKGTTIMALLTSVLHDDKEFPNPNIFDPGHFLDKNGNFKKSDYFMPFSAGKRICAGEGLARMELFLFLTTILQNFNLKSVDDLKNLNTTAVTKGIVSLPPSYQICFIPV", "assay": "Metabolism-dependent inhibition of CYP2C8 in human liver microsomes using rosiglitazone as substrate preincubated for 20 mins with NADPH prior to initiation of reaction with probe substrate by HPLC analysis", "assay_type": "ADME"}, "Cytochrome P450 2C19 [2]": {"molecular_target": "T3, Cytochrome P450 2C19 (Homo sapiens, UniProt P33261)", "T3 sequence (P33261 whole entry)": "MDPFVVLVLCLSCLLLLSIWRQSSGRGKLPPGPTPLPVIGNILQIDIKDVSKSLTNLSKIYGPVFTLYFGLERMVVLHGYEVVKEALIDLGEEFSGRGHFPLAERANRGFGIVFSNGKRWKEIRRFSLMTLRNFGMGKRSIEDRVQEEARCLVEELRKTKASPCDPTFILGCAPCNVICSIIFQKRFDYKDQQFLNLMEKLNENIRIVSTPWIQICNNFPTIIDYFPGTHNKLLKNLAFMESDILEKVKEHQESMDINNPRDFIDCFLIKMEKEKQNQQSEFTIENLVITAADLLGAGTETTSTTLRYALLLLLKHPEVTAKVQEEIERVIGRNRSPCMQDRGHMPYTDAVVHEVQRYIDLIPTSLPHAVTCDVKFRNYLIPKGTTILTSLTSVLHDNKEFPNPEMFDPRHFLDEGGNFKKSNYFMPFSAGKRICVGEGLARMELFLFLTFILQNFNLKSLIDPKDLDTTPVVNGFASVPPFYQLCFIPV", "assay": "Metabolism-dependent inhibition of CYP2C19 in human liver microsomes using S-mephenytoin as substrate preincubated for 20 mins with NADPH prior to initiation of reaction with probe substrate by HPLC analysis", "assay_type": "ADME"}, "MDR1 (P-gp, ABCB1)": {"molecular_target": "MDR1 (P-gp, ABCB1) (Homo sapiens, UniProt P08183)", "sequence (P08183 whole entry)": "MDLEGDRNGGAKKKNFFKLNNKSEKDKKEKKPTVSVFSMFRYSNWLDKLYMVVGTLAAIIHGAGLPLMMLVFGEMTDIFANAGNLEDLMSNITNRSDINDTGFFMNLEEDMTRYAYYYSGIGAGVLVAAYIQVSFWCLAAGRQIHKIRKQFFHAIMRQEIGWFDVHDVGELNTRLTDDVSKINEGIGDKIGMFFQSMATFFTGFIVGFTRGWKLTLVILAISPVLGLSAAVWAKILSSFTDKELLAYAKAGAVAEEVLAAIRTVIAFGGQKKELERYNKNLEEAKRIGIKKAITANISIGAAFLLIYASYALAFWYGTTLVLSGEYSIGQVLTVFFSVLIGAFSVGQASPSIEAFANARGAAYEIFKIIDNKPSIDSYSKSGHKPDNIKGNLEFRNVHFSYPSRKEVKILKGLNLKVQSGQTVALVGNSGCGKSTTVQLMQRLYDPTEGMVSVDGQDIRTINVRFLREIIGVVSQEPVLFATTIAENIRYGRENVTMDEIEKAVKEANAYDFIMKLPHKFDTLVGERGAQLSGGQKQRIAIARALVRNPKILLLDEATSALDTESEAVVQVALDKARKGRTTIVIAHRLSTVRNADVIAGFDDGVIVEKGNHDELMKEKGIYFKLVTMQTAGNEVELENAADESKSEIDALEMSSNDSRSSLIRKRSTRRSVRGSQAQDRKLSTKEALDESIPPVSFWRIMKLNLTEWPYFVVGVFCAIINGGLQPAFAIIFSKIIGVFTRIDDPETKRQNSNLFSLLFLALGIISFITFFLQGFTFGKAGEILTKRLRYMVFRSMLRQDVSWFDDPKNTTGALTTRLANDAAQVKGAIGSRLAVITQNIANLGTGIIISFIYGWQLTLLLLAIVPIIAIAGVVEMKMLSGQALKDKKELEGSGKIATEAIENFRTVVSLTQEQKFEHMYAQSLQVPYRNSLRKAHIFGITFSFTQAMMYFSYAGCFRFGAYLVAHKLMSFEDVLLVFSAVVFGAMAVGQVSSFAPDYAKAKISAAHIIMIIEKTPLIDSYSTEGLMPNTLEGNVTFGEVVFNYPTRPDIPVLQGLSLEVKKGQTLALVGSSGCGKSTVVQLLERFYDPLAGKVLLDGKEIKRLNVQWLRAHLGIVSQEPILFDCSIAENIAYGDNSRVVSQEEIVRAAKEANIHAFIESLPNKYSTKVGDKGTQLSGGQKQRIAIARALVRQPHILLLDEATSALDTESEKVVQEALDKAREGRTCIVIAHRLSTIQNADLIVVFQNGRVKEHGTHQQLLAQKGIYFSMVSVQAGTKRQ", "assay": "Activity at human MDR1 expressed in MDCK2 cells assessed as apical to basolateral mass balance at 3 uM by liquid scintillation counting analysis", "assay_type": "ADME, cell-based, MDCK-II", "conditions": "MDCK-MDR1, read-out: Activity"}, "[3]": {"assay": "In vitro passive membrane permeability across dog MDCK2 cells at 3 uM using fasted state-simulated intestinal fluid buffer at pH 7.4 on donor side and 1% human serum albumin at pH 7.4 on receiver side by liquid scintillation counting analysis", "assay_type": "ADME, cell-based, Canis lupus familiaris, MDCK-II", "conditions": "MDCK, read-out: permeability"}, "[4]": {"molecular_target": "T1, UDP-glucuronosyltransferase 1A1", "assay": "Drug metabolism assessed as human recombinant UGT1A1-mediated DTG glucuronide M2 ((2S,3S,4S,5R,6S)-6-((4R,12aS)-9-(2,4-difluorobenzylcarbamoyl)-4-methyl-6,8-dioxo-3,4,6,8,12,12a-hexahydro-2H-[1,3]oxazino[3,2-d]pyrido[1,2-a]pyrazin-7-yloxy)-3,4,5-trihydroxytetrahydro-2H-pyran-2-carboxylic acid) formation after 120 mins measured per mg of protein by radio-HPLC analysis", "assay_type": "ADME", "conditions": "recombinant enzyme"}, "Cytochrome P450 3A4": {"molecular_target": "Cytochrome P450 3A4 (Homo sapiens, UniProt P08684)", "sequence (P08684 whole entry)": "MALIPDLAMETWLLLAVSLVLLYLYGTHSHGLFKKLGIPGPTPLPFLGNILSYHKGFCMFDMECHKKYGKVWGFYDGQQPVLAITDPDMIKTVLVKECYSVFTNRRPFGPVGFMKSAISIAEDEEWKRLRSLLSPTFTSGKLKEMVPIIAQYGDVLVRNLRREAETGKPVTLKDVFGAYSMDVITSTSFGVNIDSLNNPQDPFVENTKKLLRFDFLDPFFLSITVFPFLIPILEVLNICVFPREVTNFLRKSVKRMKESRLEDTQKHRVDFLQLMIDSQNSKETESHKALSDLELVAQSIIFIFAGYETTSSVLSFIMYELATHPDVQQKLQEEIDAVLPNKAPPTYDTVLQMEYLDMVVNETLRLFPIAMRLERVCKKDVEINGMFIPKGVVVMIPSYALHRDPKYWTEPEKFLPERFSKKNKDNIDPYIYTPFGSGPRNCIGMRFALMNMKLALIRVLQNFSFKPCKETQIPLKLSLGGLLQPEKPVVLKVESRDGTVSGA", "assay": "Drug metabolism in supersomes expressing human recombinant CYP3A4 assessed as NADPH-fortified enzyme-mediated metabolite M3 ((4R,12aS)-N-((3,5-difluorophenyl)(hydroxy)methyl)-7-hydroxy-4-methyl-6,8-dioxo-3,4,6,8,12,12a-hexahydro-2H-[1,3]oxazino[3,2-d]pyrido[1,2-a]pyrazine-9-carboxamide) formation at 5 uM after 120 mins by radio-HPLC analysis in presence of selective CYP3A4 inhibitor azamulin", "assay_type": "ADME"}, "Cytochrome P450 2C19 [5]": {"molecular_target": "T3, Cytochrome P450 2C19", "assay": "Drug metabolism in supersomes expressing human recombinant CYP2C19 assessed as NADPH-fortified enzyme-mediated metabolite formation at 5 uM after 120 mins by radio HPLC analysis", "assay_type": "ADME", "conditions": "2 h"}, "[6]": {"molecular_target": "UDP-glucuronosyltransferase 2B4 (Homo sapiens, UniProt P06133)", "sequence (P06133 whole entry)": "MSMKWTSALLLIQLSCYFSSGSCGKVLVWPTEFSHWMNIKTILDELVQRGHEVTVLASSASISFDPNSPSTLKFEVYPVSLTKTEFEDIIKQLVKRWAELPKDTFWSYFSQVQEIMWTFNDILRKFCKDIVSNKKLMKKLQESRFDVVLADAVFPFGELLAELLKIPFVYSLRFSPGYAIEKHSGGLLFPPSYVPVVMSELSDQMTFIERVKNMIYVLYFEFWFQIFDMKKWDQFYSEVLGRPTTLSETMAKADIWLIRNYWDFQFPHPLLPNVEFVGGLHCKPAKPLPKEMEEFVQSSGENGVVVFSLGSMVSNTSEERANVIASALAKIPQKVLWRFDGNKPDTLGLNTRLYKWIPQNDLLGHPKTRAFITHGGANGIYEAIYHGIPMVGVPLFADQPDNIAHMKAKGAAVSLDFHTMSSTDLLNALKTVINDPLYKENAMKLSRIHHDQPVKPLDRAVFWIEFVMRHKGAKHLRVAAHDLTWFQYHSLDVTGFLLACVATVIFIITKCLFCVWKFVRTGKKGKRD", "assay": "Drug metabolism assessed as UDPGA-fortified human recombinant UGT2B4-mediated DTG glucuronide metabolite ((2S,3S,4S,5R,6S)-6-((4R,12aS)-9-(2,4-difluorobenzylcarbamoyl)-4-methyl-6,8-dioxo-3,4,6,8,12,12a-hexahydro-2H-[1,3]oxazino[3,2-d]pyrido[1,2-a]pyrazin-7-yloxy)-3,4,5-trihydroxytetrahydro-2H-pyran-2-carboxylic acid) formation at 16 uM after 120 mins by radio-HPLC analysis", "assay_type": "ADME", "conditions": "recombinant enzyme"}},
  "data": [
    {"smiles": "C[C@@H]1CCO[C@H]2Cn3cc(C(=O)NCc4ccc(F)cc4F)c(=O)c(O)c3C(=O)N12", "note": "[DOLUTEGRAVIR]", "values": [
      {"measurement": "IC50", "setting": "Cytochrome P450 2C9", "value": "> 100", "unit": "µM"},
      {"measurement": "inhibition at 100 µM", "setting": "CYP2C9", "value": 20, "unit": "%"},
      {"measurement": "inhibition at 100 µM", "setting": "UGT1A1", "value": 33, "unit": "%"},
      {"measurement": "IC50", "setting": "[1]", "value": "> 100", "unit": "µM"},
      {"measurement": "Activity", "setting": "Hepatocyte", "value": "Toxic"},
      {"measurement": "IC50", "setting": "Cytochrome P450 2C8", "value": "> 100", "unit": "µM"},
      {"measurement": "IC50", "setting": "Cytochrome P450 2C19 [2]", "value": "> 100", "unit": "µM"},
      {"measurement": "recovery at 3 µM", "setting": "MDR1 (P-gp, ABCB1)", "value": 84, "unit": "%"},
      {"measurement": "Papp at 3 µM", "setting": "[3]", "value": 25.2, "unit": "×10⁻⁶ cm/s"},
      {"measurement": "Vmax", "setting": "[4]", "value": 67, "unit": "pmol/min"},
      {"measurement": "Drug metabolism", "setting": "Cytochrome P450 3A4", "value": "metabolite_not_detected"},
      {"measurement": "Drug metabolism", "setting": "Cytochrome P450 2C19 [5]", "value": "metabolite_not_detected"},
      {"measurement": "Drug metabolism", "setting": "[6]", "value": "metabolite_not_detected"}
    ]}
  ]
}
